Values joined by “and” are separate entries in the source; they are usually repeats but may differ in a detail not shown here. Equal values may be shown once. Where a SMILES comes first, the peptide text is derived from it. [ ]: non-standard residue; d: D form. The star is where a group is joined. Phe(4-Br) = N[C@@H](Cc1ccc(Br)cc1)C(=O)O; Fmoc = O=C(OCC1c2ccccc2-c2ccccc21)*; PEG6 = NCCOCCOCCOCCOCCOCCOCCC(=O)O; NMeL = CN[C@@H](CC(C)C)C(=O)O; Nle = CCCC[C@H](N)C(=O)O; Aib = CC(C)(N)C(=O)O
Assays:
[1] = molecular target: Recombinant Human Neprilysin (Homo sapiens, UniProt P08473); assay: Neprilysin qualitative cleavage assay (MALDI-TOF); conditions: rhNEP 2 ng/μL, 37° C., first degradation products by MALDI-TOF
Procedure: Native apelin-17 (2) and apelin peptides 5, 54, 56, 57, 58 and 59 were dissolved in Milli-Q water (1 mM). Recombinant Human Neprilysin (rhNEP, Sino Biological) was reconstituted in Tris buffer (100 mM Tris, 100 mM NaCl, 10 mM ZnCl2, pH 7.5). To initiate the assays, rhNEP was diluted in Tris buffer to a 2 ng/μL final concentration, and pre-incubated at 37° C. for 10 minutes prior to the addition of 5 μL of apelin peptide (1 mM). Aliquots (1 μL) were taken at 1, 2, 4, 6, 12, 24, 36, and 48 hours and analyzed with MALDI-TOF mass spectrometry to qualitatively determine the time point at which degradation products could be observed.

[2] = molecular target: Human plasma kallikrein KLKB1 (Homo sapiens, UniProt P03952); assay: Plasma kallikrein KLKB1 qualitative cleavage assay (MALDI-TOF); conditions: KLKB1, 37° C., first degradation products by MALDI-TOF
Procedure: Native apelin-17 (2) and apelin peptides 5, 56, 57, 58 and 59 were dissolved in Milli-Q water (1 mM). Human plasma kallikrein KLKB1 were each reconstituted in Tris buffer (100 mM TrisHCl, 10 mM CaCl2), 150 mM NaCl) and diluted with Tris buffer (50 mM TrisHCl, 250 mM NaCl) to give a KLKB1 concentration of […]. The KLKB1 enzyme was then preincubated at 37° C. for 10 minutes prior to the addition of 5 μL of apelin peptide (1 mM). Aliquots (1 μL) were taken at 1, 2, 4, 6, 12, 24, 36, and 48 hours and analyzed with MALDI-TOF mass spectrometry to qualitatively determine the time point at which degradation products could be observed (Table 4).

KLKB1 [3] = molecular target: T1, KLKB1 (Homo sapiens, UniProt P03952); assay: In vitro KLKB1 stability (half-life); assay type: in vitro ADME; design: purchased Novoprotein; conditions: human; rhKLKB1, 37° C.; read-out: t1/2 (rhKLKB1, h) (converted)
neprilysin (NEP) = neprilysin (NEP) (Homo sapiens, UniProt P08473); assay: Neprilysin degradation assay (LC-MS, quantitative); conditions: human, pH 7.5
Procedure: This experiment compared the in vitro NEP stability of the Arg/Leu peptides of the embodiments to native apelin isoforms and their A2 substituted counterparts. Peptides were incubated with recombinant human NEP (rhNEP, Sino Biological) at 37° C. for up to 72 h, and the extent of degradation was analyzed via LC-MS because of the overlapping elution patterns of peptide fragments. […] (McKinnie, S. M. K., et al. ChemBioChem: 17, 1495-1498 (2016)). […] (Dion, N., et al., Biochem. J.: 311, 623-627 (1995); Bateman Jr., R. C., et al., J. Biol. Chem.: 264, 6151-6157 (1989); McMurray, J. J. et al., J. Med.: 371, 993-1004 (2014)).
Apelin peptides were dissolved in Milli-Q water (1 mM). Recombinant human neprilysin (rhNEP, Sino Biological) was reconstituted in Tris buffer (100 mM Tris, 100 mM NaCl, 10 μM ZnCl2, pH 7.5). To initiate the assay, rhNEP was diluted in Tris buffer (3.1 nM final concentration), and preincubated at 37° C. for 10 minutes prior to the addition of 5 μL of apelin peptide (1 mM) and 1.5 μL internal standard dansyl-Tyr-Val-Gly-OH (1 mM). Aliquots (10 μL) were removed at 0, 1, 4, 24, and 72 h, quenched with 0.1 M EDTA (10 μL), diluted to 100 μL with Milli-Q water and analyzed by LC-MS. Assays were performed in triplicate (n=3) for each time point. Integrated peak areas of the parent apelin peptide and internal standard derived from LC-MS analyses, were extracted using Mass Hunter software (version B.04.00) and compared in positive extracted ion count modus (+EIC, extracted-ion chromatogram). […] (apelin:dansyl-YVG), to the same ratio at the different assay time points. The decrease in apelin:dansyl-YVG ratio was converted to a percentage of cleaved peptide over time.
The extent of degradation was analyzed via LC-MS because of the overlapping elution patterns of peptide fragments (NEP).
Native apelin-17 (2) and apelin peptides 5, 54, 56, 57, 58 and 59 were dissolved in Milli-Q water (1 mM). Recombinant human neprilysin (rhNEP, Sino Biological) was reconstituted in Tris buffer (100 mM Tris, 100 mM NaCl, 10 μM ZnCl2, pH 7.5). To initiate the assay, rhNEP was diluted in Tris buffer (3.1 nM final concentration) and preincubated at 37° C. for 10 min prior to the addition of 5 μL of apelin peptide (1 mM) and 1.5 μL of internal standard dansyl-Tyr-Val-Gly-OH (1 mM). Aliquots (10 μL) were removed at 0, 1, 4, 24, and 72 h, quenched with 0.1 M EDTA (10 μL), diluted to 100 μL with Milli-Q water, and analyzed by LC-MS. Assays were performed in triplicate (n=3) for each time point. Integrated peak areas of the parent apelin peptide and internal standard derived from LC-MS analyses were extracted using Mass Hunter software (version B.04.00) and compared in positive extracted ion count modus (+EIC). The extent of proteolysis was determined by comparing the initial (0 h) ratio of the integrated extracted ions of the parent apelin peptide to the internal dansyl-YVG standard (apelin/dansyl-YVG) to the same ratio at the different assay time points. The decrease in apelin/dansyl-YVG ratio was converted to a percentage of cleaved peptide over time.

[4] = tested on: recombinant human neprilysin (rhNEP, Sino Biological); assay: rhNEP diluted in Tris buffer (100 mM Tris, 100 mM NaCl, 10 μM ZnCl2, pH 7.5), 3.1 nM final concentration; conditions: 37° C., up to 72 h
neprilysin (rhNEP) = assay: recombinant human NEP (rhNEP, Sino Biological) in Tris buffer (100 mM Tris, 100 mM NaCl, 10 μM ZnCl2, pH 7.5); conditions: 37° C, up to 72 h
[5] = human blood plasma (20 μL of plasma); conditions: 37° C., up to 60 min
[6] = tested on: KLKB1 (rhKLKB1, Novoprotein); assay: Human plasma kallikrein KLKB1 in Tris buffer, KLKB1 concentration of 2 ng/pL; conditions: 37° C., up to 48 hours
KLKB1 [7] = molecular target: T1, KLKB1; conditions: enzyme KLKB1, data from Gozzo et al. 2006; cited from earlier work

T1 sequence (P03952 20-638): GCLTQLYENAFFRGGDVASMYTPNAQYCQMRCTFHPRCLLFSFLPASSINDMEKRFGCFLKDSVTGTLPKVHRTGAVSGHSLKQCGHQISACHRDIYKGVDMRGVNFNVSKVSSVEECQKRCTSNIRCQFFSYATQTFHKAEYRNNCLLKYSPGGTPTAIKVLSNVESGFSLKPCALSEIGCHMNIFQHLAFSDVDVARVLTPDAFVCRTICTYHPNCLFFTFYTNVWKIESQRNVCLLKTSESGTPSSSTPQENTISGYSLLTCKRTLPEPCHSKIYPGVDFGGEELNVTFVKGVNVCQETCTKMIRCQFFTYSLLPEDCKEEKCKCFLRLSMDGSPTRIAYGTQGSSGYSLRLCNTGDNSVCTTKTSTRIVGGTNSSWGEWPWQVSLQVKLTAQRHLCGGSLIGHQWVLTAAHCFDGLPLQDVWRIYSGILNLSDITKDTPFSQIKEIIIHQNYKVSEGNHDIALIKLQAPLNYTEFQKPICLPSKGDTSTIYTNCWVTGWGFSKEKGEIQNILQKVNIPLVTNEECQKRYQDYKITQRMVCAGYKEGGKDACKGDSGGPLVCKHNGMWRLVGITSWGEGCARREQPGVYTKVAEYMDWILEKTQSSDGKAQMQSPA
Sequence of Recombinant Human Neprilysin (P08473 whole entry): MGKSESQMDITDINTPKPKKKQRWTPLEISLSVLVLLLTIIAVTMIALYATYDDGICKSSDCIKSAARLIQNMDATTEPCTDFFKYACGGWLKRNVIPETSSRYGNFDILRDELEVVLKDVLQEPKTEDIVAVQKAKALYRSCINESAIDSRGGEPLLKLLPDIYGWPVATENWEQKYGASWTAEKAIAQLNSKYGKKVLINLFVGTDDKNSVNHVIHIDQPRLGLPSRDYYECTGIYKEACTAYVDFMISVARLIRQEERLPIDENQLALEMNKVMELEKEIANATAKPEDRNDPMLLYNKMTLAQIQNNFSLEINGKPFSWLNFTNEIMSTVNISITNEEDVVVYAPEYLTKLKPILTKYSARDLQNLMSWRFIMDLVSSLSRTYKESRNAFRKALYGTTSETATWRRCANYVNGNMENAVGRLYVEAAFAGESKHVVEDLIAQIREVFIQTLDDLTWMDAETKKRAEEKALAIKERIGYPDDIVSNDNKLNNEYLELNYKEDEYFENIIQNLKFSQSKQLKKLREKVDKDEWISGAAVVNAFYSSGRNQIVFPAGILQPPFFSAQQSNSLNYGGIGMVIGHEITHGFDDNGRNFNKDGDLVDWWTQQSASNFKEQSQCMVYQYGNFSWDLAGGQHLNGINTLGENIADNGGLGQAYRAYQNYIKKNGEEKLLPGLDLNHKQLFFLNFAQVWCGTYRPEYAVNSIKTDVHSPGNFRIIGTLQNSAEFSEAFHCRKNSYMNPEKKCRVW
Sequence of neprilysin (NEP) (P08473 whole entry, the tested form may be a part, canonical isoform): as the sequence (P08473 whole entry) above
Sequence of Human plasma kallikrein KLKB1 (P03952 20-638): as the sequence (P03952 20-638) above

In the case of CCCC[C@H](NC(=O)[C@@H]1CCCN1C(=O)CNC(=O)[C@H](CCCCN)NC(=O)[C@H](Cc1cnc[nH]1)NC(=O)[C@H](CO)NC(=O)[C@H](CC(C)C)NC(=O)[C@H](CCCNC(=N)N)NC(=O)[C@@H]1CCCN1C(=O)[C@H](CCCNC(=N)N)NC(=O)[C@H](CCC(N)=O)NC(=O)[C@H](CCCNC(=N)N)NC(=O)[C@H](CCCNC(=N)N)NC(=O)[C@H](Cc1ccccc1)NC(=O)[C@H](CCCCN)NC(=O)CCOCCOCCOCCOCCOCCOCCNC(=O)OCC1c2ccccc2-c2ccccc21)C(=O)NC(C)(C)C(=O)N[C@@H](Cc1ccc(Br)cc1)C(=O)O [Peptide 57] ({Fmoc-PEG6}-KFRRQRPRLSHKGP[Nle][Aib][Phe(4-Br)]-OH), the “Degradation Onset Timepoint with NEP” value [1] is reported as 12 h, the “Degradation Onset Timepoint with KLKB1” value [2] is reported as 1 h and the half-life (KLKB1 [3]) is reported as 1.4 h. For the same molecule, the half-life (neprilysin (NEP)) was greater than 1800 min.

For CCCC[C@H](NC(=O)[C@@H]1CCCN1C(=O)CNC(=O)[C@H](CCCCN)NC(=O)[C@H](Cc1cnc[nH]1)NC(=O)[C@H](CO)NC(=O)[C@H](CC(C)C)N(C)C(=O)[C@H](CCCNC(=N)N)NC(=O)[C@@H]1CCCN1C(=O)[C@H](CCCNC(=N)N)NC(=O)[C@H](CCC(N)=O)NC(=O)[C@H](CCCNC(=N)N)NC(=O)[C@H](CCCNC(=N)N)NC(=O)[C@H](Cc1ccccc1)NC(=O)[C@H](CCCCN)NC(=O)CCOCCOCCOCCOCCOCCOCCNC(=O)OCC1c2ccccc2-c2ccccc21)C(=O)NC(C)(C)C(=O)N[C@@H](Cc1ccc(Br)cc1)C(=O)O [Peptide 59] ({Fmoc-PEG6}-KFRRQRPR[NMeL]SHKGP[Nle][Aib][Phe(4-Br)]-OH), the “Degradation Onset Timepoint with NEP” value [1] was greater than 36 h, the “Degradation Onset Timepoint with KLKB1” value [2] was 2 h and the half-life (KLKB1 [3]) was 2.9 h. It also gave a half-life (neprilysin (NEP)) greater than 1800 min.

With “Lys-Phe-Arg-Arg-Gln-Arg-Pro-Arg-D-Leu-Ser-His-Lys-Gly-Pro-Nle-Aib-paraBrPhe” the cleaved bond [4] was “Nle15-Aib16, minor” and the cleaved bond (neprilysin (rhNEP)) was “Nle15-Aib16, minor”.

With “Lys-Phe-Arg-Arg-Gln-Arg-Pro-Arg-Leu-Ser-His-Lys-Gly-Pro-Nle-Aib-paraBrPhe” the fragment found [5] was 1-3 and 4-17 and the cleaved bond [6] was “Arg3-Arg4, <30 min”.

In the case of “Lys-Phe-Arg-Arg-Gln-Arg-Pro-azaArg-Leu-Ser-His-Lys-Gly-Pro-Nle-Aib-paraBrPhe”, the cleaved bond [4] is reported as “Nle15-Aib16, minor” and the not cleaved [5] is reported as 94 ± 3 % apelin at 60 min.

For “pGlu-Arg-Pro-Arg-D-Leu-Ser-His-Lys-Gly-Pro-Nle-Aib-paraBrPhe”, the cleaved bond [4] was “Nle11-Aib12, minor” and the cleaved bond (neprilysin (rhNEP)) was “Nle11-Aib12, minor”.

B1: Kininogen: KLKB1 substrate, kinetic data from Gozzo et al. (protein, UniProt P01042 19-644, looked up)
Kininogen-1: QESQSEEIDCNDKDLFKAVDAALKKYNSQNQSNNQFVLYRITEATKTVGSDTFYSFKYEIKEGDCPVQSGKTWQDCEYKDAAKAATGECTATVGKRSSTKFSVATQTCQITPAEGPVVTAQYDCLGCVHPISTQSPDLEPILRHGIQYFNNNTQHSSLFMLNEVKRAQRQVVAGLNFRITYSIVQTNCSKENFLFLTPDCKSLWNGDTGECTDNAYIDIQLRIASFSQNCDIYPGKDFVQPPTKICVGCPRDIPTNSPELEETLTHTITKLNAENNATFYFKIDNVKKARVQVVAGKKYFIDFVARETTCSKESNEELTESCETKKLGQSLDCNAEVYVVPWEKKIYPTVNCQPLGMISLMKRPPGFSPFRSSRIGEIKEETTVSPPHTSMAPAQDEERDSGKEQGHTRRHDWGHEKQRKHNLGHGHKHERDQGHGHQRGHGLGHGHEQQHGLGHGHKFKLDDDLEHQGGHVLDHGHKHKHGHGHGKHKNKGKKNGKHNGWKTEHLASSSEDSTTPSAQTQEKTEGPTPIPSLAKPGVTVTFSDFQDSDLIATMMPPISPAPIQSDDDWIPDIQIDPNGLSFNPISDFPDTTSPKCPGRPWKSVSEINPTTQMKESYYFDLTDGLS
For B1, the Km (KLKB1 [7]) is given as 750 nM and the “kcat” value (KLKB1 [7]) is given as 0.031 s⁻¹.

Reference: patent US10640545B2 (THE GOVERNORS OF THE UNIVERSITY OF ALBERTA, priority 2017, dated 2020)
